Numbered stars: 1 amine (or outer) side, 2 acyl side, 3 side chain; on linkers, the order of the positions; unused ones are H or OH. Bridge positions count the residues as written; N and C are the ends. Square brackets hold non-standard residues; d marks the D form. Side chains are listed from the residue outwards. Peptide text beside a SMILES is read from it. * marks the point of attachment. C18 diacid = O=C(O)CCCCCCCCCCCCCCCCC(=O)*; γGlu = O=C(O)[C@H](CCC(=O)[*:2])N[*:1]; αMeF = C[C@](N)(Cc1ccccc1)C(=O)O; AEEA = NCCOCCOCC(=O)O; Aib = CC(C)(N)C(=O)O
Legend:
[1] = system: lean rats; experiment: Rat acute food intake study; format: in vivo, Sprague Dawley rats; conditions: 20 nmol/kg subcutaneously
Description: Male Sprague Dawley rats were obtained from Taconic Denmark, ApS at approximately 7 weeks of age. . . . Rats were implanted with a microchip for identification, housed 4/cage with enrichment, free access to food and water, and allowed one week acclimatisation while non-invasive characterization was performed. Rats were on a 12:12 light:dark cycle that switches at 1 pm:1 am. Food intake was monitored via the HM2 system (Lafayette Instrument) that allows for monitoring in a home cage. As each rat enters an access tunnel to feed, an IR beam is broken, and the implanted microchip is read. Resulting changes to food weight is then assigned to the specific animal. Social order has shown no impact to overall feeding patterns and amounts.
Rats were sorted into groups based on Day-1 body weight and 24-hour accumulated food intake (n=7 per group). On Day 0 rats were weighed, then fasted for 6 hours. Thirty (30) minutes prior to the reintroduction of food, rats were dosed subcutaneously (5 ml/kg) with 20 nmol/kg of test compound or 60 nmol/kg peptide 1 (pramlintide) diluted in an appropriate vehicle, after which food was returned, and lights went out. Automated food intake was monitored for the following 3 days, and rats were weighed once per day.
Food intake per rat was batched into 1-hour intervals and integrated into Gubra's GubraView data management system. Discrete food intake data was exported into MS Excel from which cumulative food intake data was generated. Cumulative food intake data was then transposed into GraphPad Prism (v8.0.1) for analysis of dark period feeding

[2] = Thioflavin T fibrillation assay; format: physicochemical; conditions: for Time taken to detect increase in fluorescence intensity: 1 mg/mL in 25 mM sodium acetate buffer pH 4.0, 37° C., 6 days, orbital shaking, >144 h = no increase
In short: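 Peptides at 1 mg/mL in 25 mM sodium acetate pH 4.0 were mixed with ThT (0.25 mM stock) and held 6 days at 37 °C with intermittent orbital shaking at 500–750 rpm. Fluorescence (ex 444/em 480 nm) was read every 30 min, with buffer baseline correction and 5 replicates. Value: mean time to a detectable fluorescence increase.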

Q: Which “Cummulative food intake (% vehicle treated intake) At 12 h” value [1] does the source give for `CC[C@H](C)[C@H](NC(=O)[C@@H]1CCCN1C(=O)CNC(=O)[C@H](Cc1ccccc1)NC(=O)[C@H](CC(N)=O)NC(=O)C(C)(C)NC(=O)[C@H](CO)NC(=O)[C@H](CO)NC(=O)[C@H](Cc1c[nH]cn1)NC(=O)[C@@H](NC(=O)[C@H](CC(C)C)NC(=O)[C@H](Cc1ccccc1)NC(=O)[C@H](CCC(=O)O)NC(=O)[C@H](C)NC(=O)[C@H](CC(C)C)NC(=O)[C@H](CCCNC(=N)N)NC(=O)[C@H](CCC(N)=O)NC(=O)[C@@H](NC(=O)[C@H](C)NC(=O)[C@@H]1CSSC[C@H](NC(=O)[C@H](CCCCN)NC(=O)[C@@H](N)CCCCNC(=O)CC[C@H](NC(=O)CCCCCCCCCCCCCCCCC(=O)O)C(=O)O)C(=O)N[C@@H](CC(N)=O)C(=O)N[C@@H]([C@@H](C)O)C(=O)N[C@@H](C)C(=O)N[C@@H]([C@@H](C)O)C(=O)N1)[C@@H](C)O)C(C)C)C(=O)N[C@@H](CC(C)C)C(=O)N1CCC[C@H]1C(=O)N1CCC[C@H]1C(=O)N[C@H](C(=O)N[C@@H](CC(N)=O)C(=O)N[C@H](C(=O)NCC(=O)N[C@@H](CO)C(=O)N[C@@H](CC(N)=O)C(=O)N[C@H](C(=O)N[C@@H](Cc1ccc(O)cc1)C(N)=O)[C@@H](C)O)C(C)C)[C@@H](C)O` [Peptide 38, K(γE-C18diacid)K[CNTATC]ATQRLAEFLVHSS(Aib)NFGPILPPTNVGSNTY-amide] (H-K([γGlu-C18 diacid])KCNTATCATQRLAEFLVHSS[Aib]NFGPILPPTNVGSNTY-NH2; disulfide 3-8; N-terminus assumed) here?
A: 6.9 % vehicle treated intake

Q: What about the “Cummulative food intake (% vehicle treated intake) At 24 h” value ([1]; at 24 h) of the same molecule?
A: 5.5 % vehicle treated intake

Q: For `CC[C@H](C)[C@H](NC(=O)[C@@H]1CCCN1C(=O)CNC(=O)[C@H](Cc1ccccc1)NC(=O)[C@H](CC(N)=O)NC(=O)C(C)(C)NC(=O)[C@H](CO)NC(=O)[C@H](CO)NC(=O)[C@H](Cc1c[nH]cn1)NC(=O)[C@@H](NC(=O)[C@H](CC(C)C)NC(=O)[C@H](Cc1ccccc1)NC(=O)[C@H](CC(N)=O)NC(=O)[C@H](C)NC(=O)[C@H](CC(C)C)NC(=O)[C@H](CCCNC(=N)N)NC(=O)[C@H](CCC(N)=O)NC(=O)[C@@H](NC(=O)[C@H](C)NC(=O)[C@@H]1CSSC[C@H](NC(=O)[C@H](CCCCN)NC(=O)[C@@H](N)CCCCNC(=O)CC[C@H](NC(=O)CCCCCCCCCCCCCCCCC(=O)O)C(=O)O)C(=O)N[C@@H](CC(N)=O)C(=O)N[C@@H]([C@@H](C)O)C(=O)N[C@@H](C)C(=O)N[C@@H]([C@@H](C)O)C(=O)N1)[C@@H](C)O)C(C)C)C(=O)N[C@@H](CC(C)C)C(=O)N1CCC[C@H]1C(=O)N1CCC[C@H]1C(=O)N[C@H](C(=O)N[C@@H](CC(N)=O)C(=O)N[C@H](C(=O)NCC(=O)N[C@@H](CO)C(=O)N[C@@H](CC(N)=O)C(=O)N[C@H](C(=O)N[C@@H](Cc1ccc(O)cc1)C(N)=O)[C@@H](C)O)C(C)C)[C@@H](C)O` [Peptide 35, K(γE-C18diacid)K[CNTATC]ATQRLANFLVHSS(Aib)NFGPILPPTNVGSNTY-amide] (H-K([γGlu-C18 diacid])KCNTATCATQRLANFLVHSS[Aib]NFGPILPPTNVGSNTY-NH2; disulfide 3-8; N-terminus assumed), which “Cummulative food intake (% vehicle treated intake) At 48 h” value ([1]; at 48 h) is on record?
A: 72 % vehicle treated intake

Q: Which “Cummulative food intake (% vehicle treated intake) At 12 h” value [1] does the source give for `CC[C@H](C)[C@H](NC(=O)[C@@H]1CCCN1C(=O)CNC(=O)[C@H](Cc1ccccc1)NC(=O)[C@H](CC(N)=O)NC(=O)[C@H](CC(N)=O)NC(=O)[C@H](CO)NC(=O)[C@H](CO)NC(=O)[C@H](Cc1c[nH]cn1)NC(=O)C(C)(C)NC(=O)[C@H](CC(C)C)NC(=O)[C@H](Cc1ccccc1)NC(=O)[C@H](CC(N)=O)NC(=O)[C@H](C)NC(=O)[C@H](CC(C)C)NC(=O)[C@H](CCCNC(=N)N)NC(=O)[C@H](CCC(N)=O)NC(=O)[C@@H](NC(=O)[C@H](C)NC(=O)[C@@H]1CSSC[C@H](NC(=O)[C@@H](N)CCCCNC(=O)CC[C@H](NC(=O)CCCCCCCCCCCCCCCCC(=O)O)C(=O)O)C(=O)N[C@@H](CC(N)=O)C(=O)N[C@@H]([C@@H](C)O)C(=O)N[C@@H](C)C(=O)N[C@@H]([C@@H](C)O)C(=O)N1)[C@@H](C)O)C(=O)N[C@@H](CC(C)C)C(=O)N1CCC[C@H]1C(=O)N1CCC[C@H]1C(=O)N[C@H](C(=O)N[C@@H](CC(N)=O)C(=O)N[C@H](C(=O)NCC(=O)N[C@@H](CO)C(=O)N[C@@H](CC(N)=O)C(=O)N[C@H](C(=O)N[C@@H](Cc1ccc(O)cc1)C(N)=O)[C@@H](C)O)C(C)C)[C@@H](C)O` [Peptide 149] (H-K([γGlu-C18 diacid])CNTATCATQRLANFL[Aib]HSSNNFGPILPPTNVGSNTY-NH2; disulfide 2-7; N-terminus assumed) here?
A: 31 % vehicle treated intake

Q: With `CC[C@H](C)[C@H](NC(=O)[C@@H]1CCCN1C(=O)CNC(=O)[C@](C)(Cc1ccccc1)NC(=O)[C@H](CC(N)=O)NC(=O)[C@H](CC(N)=O)NC(=O)[C@H](CO)NC(=O)[C@H](CO)NC(=O)[C@H](Cc1c[nH]cn1)NC(=O)[C@@H](NC(=O)[C@H](CC(C)C)NC(=O)[C@H](Cc1ccccc1)NC(=O)[C@H](CC(N)=O)NC(=O)[C@H](C)NC(=O)[C@H](CC(C)C)NC(=O)[C@H](CCCNC(=N)N)NC(=O)[C@H](CCC(N)=O)NC(=O)[C@@H](NC(=O)[C@H](C)NC(=O)[C@@H]1CSSC[C@H](NC(=O)[C@@H](N)CCCCNC(=O)CC[C@H](NC(=O)CC[C@H](NC(=O)CCCCCCCCCCCCCCCCC(=O)O)C(=O)O)C(=O)O)C(=O)N[C@@H](CC(N)=O)C(=O)N[C@@H]([C@@H](C)O)C(=O)N[C@@H](C)C(=O)N[C@@H]([C@@H](C)O)C(=O)N1)[C@@H](C)O)C(C)C)C(=O)N[C@@H](CC(C)C)C(=O)N1CCC[C@H]1C(=O)N1CCC[C@H]1C(=O)N[C@H](C(=O)N[C@@H](CCCNC(=N)N)C(=O)N[C@H](C(=O)NCC(=O)N[C@@H](CO)C(=O)N[C@@H](CC(N)=O)C(=O)N[C@H](C(=O)N[C@@H](Cc1ccc(O)cc1)C(N)=O)[C@@H](C)O)C(C)C)[C@@H](C)O` [Peptide 24, K(γE-γE-C18diacid)[CNTATC]ATQRLANFLVHSSNN(αMePhe)GPILPPTRVGSNTY-amide] (H-K([γGlu-γGlu-C18 diacid])CNTATCATQRLANFLVHSSNN[αMeF]GPILPPTRVGSNTY-NH2; disulfide 2-7; N-terminus assumed) as the molecule, how does the “Time taken to detect increase in fluorescence intensity” value [2] read?
A: >144 h

Q: For `CC[C@H](C)[C@H](NC(=O)[C@@H]1CCCN1C(=O)CNC(=O)[C@H](Cc1ccccc1)NC(=O)[C@H](CC(N)=O)NC(=O)[C@H](CC(N)=O)NC(=O)[C@H](CO)NC(=O)[C@H](CO)NC(=O)[C@H](Cc1c[nH]cn1)NC(=O)[C@@H](NC(=O)[C@H](CC(C)C)NC(=O)[C@H](Cc1ccccc1)NC(=O)[C@H](CC(N)=O)NC(=O)[C@H](C)NC(=O)[C@H](CC(C)C)NC(=O)[C@H](CCCNC(=N)N)NC(=O)[C@H](CCC(N)=O)NC(=O)[C@@H](NC(=O)[C@H](C)NC(=O)[C@@H]1CSSC[C@H](NC(=O)[C@@H](N)CCCCNC(=O)COCCOCCNC(=O)COCCOCCNC(=O)CC[C@H](NC(=O)CCCCCCCCCCCCCCCCC(=O)O)C(=O)O)C(=O)N[C@@H](CC(N)=O)C(=O)N[C@@H]([C@@H](C)O)C(=O)N[C@@H](C)C(=O)N[C@@H]([C@@H](C)O)C(=O)N1)[C@@H](C)O)C(C)C)C(=O)N[C@@H](CC(C)C)C(=O)N1CCC[C@H]1C(=O)N1CCC[C@H]1C(=O)N[C@H](C(=O)N[C@@H](CC(N)=O)C(=O)N[C@H](C(=O)NCC(=O)N[C@@H](CO)C(=O)N[C@@H](CC(N)=O)C(=O)N[C@H](C(=O)N[C@@H](Cc1ccc(O)cc1)C(N)=O)[C@@H](C)O)C(C)C)[C@@H](C)O` [Peptide 6] (H-K([AEEA-AEEA-γGlu-C18 diacid])CNTATCATQRLANFLVHSSNNFGPILPPTNVGSNTY-NH2; disulfide 2-7; N-terminus assumed), which “Time taken to detect increase in fluorescence intensity” value [2] is on record?
A: 15 h

Q: And the “fibril-forming tendency on conjugating pramlintide to a lipid” value ([2]; as seen in Table 7)?
A: increases the fibril-forming tendency

Source: US12371464B2, “Polypeptides and uses thereof” (MEDIMMUNE LIMITED, priority 2020, dated 2025)
